Bridge positions count the residues as written; N and C are the ends. Square brackets hold non-standard residues; d marks the D form. Peptide text beside a SMILES is read from it. * marks the point of attachment. Gly(octyl) = CCCCCCCC[C@H](N)C(=O)O; Heptanoyl(6-Me) = CC(C)CCCCC(=O)*; X1 = CC[C@@H](C)CCCCC(=O)*; Octanoyl = CCCCCCCC(=O)*; Dab = NCC[C@H](N)C(=O)O
Molecular target: Elastase (Pseudomonas aeruginosa (strain ATCC 15692 / PAO1 / 1C / PRS 101 / LMG12228), UniProt P14756)
Test: Inhibition of Pseudomonas aeruginosa LasB elastase using aminobenzoyl-Ala-Gly-Leu-Ala-p-nitro-benzyl-amide as substrate b microtiter-based fluorimetric assay
Details: not given

Chain of Elastase (P14756 whole entry): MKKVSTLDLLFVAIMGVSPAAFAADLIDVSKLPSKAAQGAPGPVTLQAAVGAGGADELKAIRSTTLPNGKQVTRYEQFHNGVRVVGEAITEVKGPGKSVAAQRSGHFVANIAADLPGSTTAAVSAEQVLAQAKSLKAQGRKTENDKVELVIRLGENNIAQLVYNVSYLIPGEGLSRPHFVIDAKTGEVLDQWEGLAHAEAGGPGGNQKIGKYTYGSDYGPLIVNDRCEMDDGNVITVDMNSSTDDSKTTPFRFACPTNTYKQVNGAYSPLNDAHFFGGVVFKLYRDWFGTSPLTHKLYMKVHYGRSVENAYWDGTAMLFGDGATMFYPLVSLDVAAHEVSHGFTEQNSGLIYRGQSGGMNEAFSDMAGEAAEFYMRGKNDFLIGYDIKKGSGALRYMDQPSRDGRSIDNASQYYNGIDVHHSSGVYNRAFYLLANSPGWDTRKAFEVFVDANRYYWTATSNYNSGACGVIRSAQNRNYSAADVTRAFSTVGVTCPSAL

Row | Compound | IC50
1 | Cc1c(O)c(=S)ccn1Cc1ccc(-c2ccccc2)cc1 | 3 µM

Test system: not listed separately
Test: Half life in mouse
Assay type: ADME, organism-based
Details: in vivo

Row | Compound | half-life
2 | CO[C@H]1O[C@H](CNC(=O)/C=C/c2ccccc2)[C@@H](O)[C@H](O)[C@@H]1O | 5 min
3 | CO[C@H]1O[C@H](CNS(=O)(=O)c2c(C)cc(C)cc2C)[C@@H](O)[C@H](O)[C@@H]1O | 5 min
4 | CO[C@H]1O[C@H](CO)[C@@H](O)[C@H](O)[C@@H]1O | 0.75 min
5 | COc1ccc(/C=C/C(=O)NC[C@H]2O[C@H](OC)[C@@H](O)[C@@H](O)[C@@H]2O)cc1OC | 5 min

Test system: Pseudomonas aeruginosa
Test: Antimicrobial activity against polymyxin resistant Pseudomonas aeruginosa assessed as reduction in bacterial growth
Assay type: functional
Details: not given

Row | Compound | MIC
6 | CC[C@@H](C)CCCCC(=O)N[C@@H](CCN)C(=O)N[C@H](C(=O)N[C@@H](CCN)C(=O)N[C@H]1CCNC(=O)[C@H]([C@@H](C)O)NC(=O)[C@H](CCN)NC(=O)[C@H](CCN)NC(=O)[C@H](CC(C)C)NC(=O)[C@@H](Cc2ccccc2)NC(=O)[C@H](CCN)NC1=O)[C@@H](C)O (X1-[Dab]T[Dab][Dab][Dab][dF]L[Dab][Dab]T; lactam 4-C) | < 2 µg/mL
7 | CC(C)CCCCC(=O)N[C@@H](CCN)C(=O)N[C@H](C(=O)N[C@@H](CCN)C(=O)N[C@H]1CCNC(=O)[C@H]([C@@H](C)O)NC(=O)[C@H](CCN)NC(=O)[C@H](CCN)NC(=O)[C@H](CC(C)C)NC(=O)[C@@H](Cc2ccccc2)NC(=O)[C@H](CCN)NC1=O)[C@@H](C)O [POLYMYXIN B2] ({Heptanoyl(6-Me)}-[Dab]T[Dab][Dab][Dab][dF]L[Dab][Dab]T; lactam 4-C) | < 2 µg/mL
8 | CCCCCCCC[C@@H]1NC(=O)[C@@H](Cc2ccccc2)NC(=O)[C@H](CCN)NC(=O)[C@@H](NC(=O)[C@H](CCN)NC(=O)[C@@H](NC(=O)[C@H](CCN)NC(=O)CCCCCCC)[C@@H](C)O)CCNC(=O)[C@H]([C@@H](C)O)NC(=O)[C@H](CCN)NC(=O)[C@H](CCN)NC1=O (Octanoyl-[Dab]T[Dab][Dab][Dab][dF][Gly(octyl)][Dab][Dab]T; lactam 4-C) | < 2 µg/mL

Molecular target: T1, PA-I galactophilic lectin (Pseudomonas aeruginosa (strain ATCC 15692 / PAO1 / 1C / PRS 101 / LMG12228), UniProt Q05097)
T1 sequence (Q05097 whole entry): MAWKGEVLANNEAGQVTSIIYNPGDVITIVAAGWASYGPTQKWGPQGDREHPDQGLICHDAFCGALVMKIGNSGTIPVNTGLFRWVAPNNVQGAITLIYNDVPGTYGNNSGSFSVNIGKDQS
Test: Binding affinity to Pseudomonas aeruginosa PAO1 LecA assessed as dissociation constant
Details: not given

Row | Compound | Kd
9 | OC[C@H]1O[C@@H](Sc2ccc3ccccc3c2)[C@H](O)[C@@H](O)[C@H]1O | 6300 nM
10 | COC(=O)c1cn([C@@H]2O[C@H](CO)[C@@H](O[C@@H]3O[C@@H](C)[C@@H](O)[C@@H](O)[C@@H]3O)[C@H](O)[C@H]2NC(C)=O)nn1 | 290 nM
11 | CO[C@H]1O[C@H]([C@@H](O)CNS(=O)(=O)c2c(C)cc(C)cc2C)[C@@H](O)[C@H](O)[C@@H]1O | 100 nM
12 | C[C@@H]1O[C@H](CO)[C@@H](O)[C@H](O)[C@@H]1O | 16000 nM
13 | CO[C@H]1O[C@H](CNS(=O)(=O)c2c(C)cc(C)cc2C)[C@@H](O)[C@H](O)[C@@H]1O | 3300 nM
14 | CC[C@H](C)[C@H](NC(=O)[C@H](Cc1cnc[nH]1)NCCCC[C@H](NC(=O)[C@@H](NC(=O)[C@H](CCCCN)NC(=O)[C@H](Cc1ccccc1)NC(=O)[C@H](CCCCNC(=O)[C@H](CC(C)C)NC(=O)[C@@H]1CCCN1C(=O)[C@@H](N)CCCCNC(=O)C[C@@H]1O[C@@H](C)[C@@H](O)[C@@H](O)[C@@H]1O)NC(=O)[C@H](CC(C)C)NC(=O)[C@@H]1CCCN1C(=O)[C@@H](N)CCCCNC(=O)C[C@@H]1O[C@@H](C)[C@@H](O)[C@@H](O)[C@@H]1O)[C@@H](C)CC)C(=O)N[C@H](C(=O)N[C@@H](CCCCN)C(=O)N[C@@H](Cc1ccccc1)C(=O)N[C@@H](CCCCN[C@@H](CC(C)C)C(=O)N1CCC[C@H]1C(=O)N[C@@H](CCCCNC(=O)C[C@@H]1O[C@@H](C)[C@@H](C)[C@@H](C)[C@@H]1O)C(=O)O)C(=O)N[C@@H](CC(C)C)C(=O)N1CCC[C@H]1C(=O)N[C@@H](CCCCNC(=O)C[C@@H]1O[C@@H](C)[C@@H](O)[C@@H](O)[C@@H]1O)C(=O)O)[C@@H](C)CC)C(N)=O | 140 nM
15 | CC(=O)N[C@H]1C(O)O[C@H](CO)[C@@H](O[C@@H]2O[C@@H](C)[C@@H](O)[C@@H](O)[C@@H]2O)[C@@H]1O[C@@H]1O[C@H](CO)[C@H](O)[C@H](O)[C@H]1O (stereo not given in full) | 212 nM
16 | COc1ccc(/C=C/C(=O)NC[C@H]2O[C@H](OC)[C@@H](O)[C@@H](O)[C@@H]2O)cc1OC | 11000 nM
17 | C[C@@H]1O[C@H](C)[C@@H](O)[C@H](O)[C@@H]1O | 17000 nM
18 | N=C(N)NCCC[C@H](NC(=O)COCCOCCNC(=O)[C@H](CCCCNC(=O)[C@@H]1C[C@H](NC(=O)[C@H](Cc2cn(CCNC(=O)c3ccc(S[C@@H]4O[C@H](CO)[C@H](O)[C@H](O)[C@H]4O)cc3)nn2)NC(=O)COc2ccccc2)CN1)NC(=O)[C@@H]1C[C@H](NC(=O)[C@H](Cc2cn(CCNC(=O)c3ccc(S[C@@H]4O[C@H](CO)[C@H](O)[C@H](O)[C@H]4O)cc3)nn2)NC(=O)COc2ccccc2)CN1)C(N)=O | 82 nM

Molecular target: T2, Transcriptional activator protein LasR (Pseudomonas aeruginosa (strain ATCC 15692 / PAO1 / 1C / PRS 101 / LMG12228)) (UniProt P25084)
T2 sequence (whole entry): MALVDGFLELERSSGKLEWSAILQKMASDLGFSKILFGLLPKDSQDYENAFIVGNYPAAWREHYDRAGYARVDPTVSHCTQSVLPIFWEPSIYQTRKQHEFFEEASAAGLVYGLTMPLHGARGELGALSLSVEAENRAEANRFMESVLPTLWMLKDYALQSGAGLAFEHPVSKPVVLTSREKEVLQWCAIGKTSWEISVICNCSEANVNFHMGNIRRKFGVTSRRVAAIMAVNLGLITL
Test: Inhibition of Pseudomonas aeruginosa PAO1 LasR at 200 uM relative to control
Details: not given

Row | inhibition | Compound
19 | 66% | O=C(CCCc1c[nH]c2ccccc12)N[C@H]1CCOC1=O
20 | 77% | O=C(Cc1ccc(Br)cc1)N[C@H]1CCOC1=O

— ChEMBL document CHEMBL5257018, “Novel Strategies for the Treatment of Pseudomonas aeruginosa Infections” (J Med Chem, 2016)
